Tests used:
myeloperoxidase [1] = molecular target: T1, myeloperoxidase (Homo sapiens, UniProt P05164); assay: MPO Chlorination Assay (APF Assay); type: biochemical; conditions: potency range class, read-out: APF Assay IC50 value
T1 sequence (P05164 49-745): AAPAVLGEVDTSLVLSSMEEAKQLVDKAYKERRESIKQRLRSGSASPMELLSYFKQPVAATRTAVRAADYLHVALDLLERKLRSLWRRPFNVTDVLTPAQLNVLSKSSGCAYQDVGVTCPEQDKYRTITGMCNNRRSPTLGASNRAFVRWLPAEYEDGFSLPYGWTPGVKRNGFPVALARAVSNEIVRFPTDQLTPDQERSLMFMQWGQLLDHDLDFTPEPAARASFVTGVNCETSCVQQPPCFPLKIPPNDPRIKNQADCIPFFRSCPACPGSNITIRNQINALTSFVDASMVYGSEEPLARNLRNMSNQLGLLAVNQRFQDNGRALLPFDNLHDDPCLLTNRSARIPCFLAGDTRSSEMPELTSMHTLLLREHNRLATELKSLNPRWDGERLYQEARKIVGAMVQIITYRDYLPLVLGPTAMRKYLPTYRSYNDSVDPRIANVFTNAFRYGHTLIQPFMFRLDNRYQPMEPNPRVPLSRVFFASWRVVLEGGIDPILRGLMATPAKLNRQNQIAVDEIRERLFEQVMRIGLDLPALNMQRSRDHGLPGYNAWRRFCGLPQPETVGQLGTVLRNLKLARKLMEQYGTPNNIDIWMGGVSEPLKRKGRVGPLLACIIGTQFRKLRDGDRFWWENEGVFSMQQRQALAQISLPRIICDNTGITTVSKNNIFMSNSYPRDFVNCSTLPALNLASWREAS

myeloperoxidase [2] = molecular target: T1, myeloperoxidase; assay: MPO Peroxidation Assay (Amplex Red Assay); type: biochemical; conditions: potency range class
[3] = read-out: Amplex Red Assay IC50 value

| SMILES | IC50 (myeloperoxidase [1]) [nM] | IC50 (myeloperoxidase [2]; [3]) [µM] | IC50 (myeloperoxidase [2]; Amplex Red Assay IC50 value (μM)) [µM] |
| --- | --- | --- | --- |
| CC1(NCCC(c2ccccc2)c2cc(N)nc3[nH]nnc23)CCC(c2ccccc2)CC1 (mixture of isomers) [Example 143, 7-{3-[(1-methyl-4-phenylcyclohexyl)amino]-1-phenylpropyl}-3H-[1,2,3]triazolo[4,5-b]pyridin-5-amine] | 101 to 999 | 0.101 to 0.999 |  |
| CC(c1ccccc1)c1cc(N)nc2[nH]nnc12 (racemic) [Example 1, 7-(1-phenylethyl)-3H-[1,2,3]triazolo[4,5-b]pyridin-5-amine] |  | 0.001 to 0.1 |  |
| CC(c1cccc(F)c1)c1cc(N)nc2[nH]nnc12 (racemic) [Example 30, 7-(1-(3-fluorophenyl)ethyl)-3H-[1,2,3]triazolo[4,5-b]pyridin-5-amine] | 101 to 999 | 0.001 to 0.1 |  |
| Nc1cc(C(Cc2ccccc2F)c2ccccc2)c2nn[nH]c2n1 (single isomer, unassigned) [Example 9, 7-(2-(2-fluorophenyl)-1-phenylethyl)-3H-[1,2,3]triazolo[4,5-b]pyridin-5-amine] | 101 to 999 | 0.101 to 0.999 |  |
| Nc1cc(C(Cc2ccccc2)c2ccccc2F)c2nn[nH]c2n1 (single isomer, unassigned) [Example 10, 7-(1-(2-fluorophenyl)-2-phenylethyl)-3H-[1,2,3]triazolo[4,5-b]pyridin-5-amine] | 1 to 100 | 0.001 to 0.1 |  |
| CC(NCCC(c1ccccc1)c1cc(N)nc2[nH]nnc12)c1ccccc1 (single isomer, unassigned) [Example 12, 7-(1-phenyl-3-((1-phenylethyl)amino)propyl)-3H-[1,2,3]triazolo[4,5-b]pyridin-5-amine] | 101 to 999 | 0.101 to 0.999 |  |
| CC(NCCC(c1ccccc1)c1cc(N)nc2[nH]nnc12)c1ccccc1 (single isomer, unassigned) [Example 13, 7-(1-phenyl-3-((1-phenylethyl)amino)propyl)-3H-[1,2,3]triazolo[4,5-b]pyridin-5-amine] |  | 0.101 to 0.999 |  |
| Nc1cc(C(CCNC2CC(c3ccccc3)C2)c2ccccc2)c2nn[nH]c2n1 (single isomer, unassigned) [Example 80, 7-{1-phenyl-3-[(3-phenylcyclobutyl)amino]propyl}-3H-[1,2,3]triazolo[4,5-b] pyridin-5-amine] | 1 to 100 | 0.101 to 0.999 |  |
| Nc1cc(C(CCNC2CC(c3ccccc3)C2)c2ccccc2)c2nn[nH]c2n1 (single isomer, unassigned) [Example 81, 7-{1-phenyl-3-[(3-phenylcyclobutyl)amino]propyl}-3H-[1,2,3]triazolo[4,5-b] pyridin-5-amine] | 1 to 100 | 1 to 10 |  |
| Nc1cc(C(CCOC2CCc3ccccc32)c2ccccc2)c2nn[nH]c2n1 (single isomer, unassigned) [Example 232, 7-(3-((2,3-dihydro-1H-inden-1-yl)oxy)-1-phenylpropyl)-3H-[1,2,3]triazolo[4,5-b]pyridin-5-amine] |  | 0.101 to 0.999 |  |
| CCCC(c1ccccc1)c1cc(N)nc2[nH]nnc12 (centres unmarked) [Example 3, 7-(1-phenylbutyl)-3H-[1,2,3]triazolo [4,5-b]pyridin-5-amine] |  | 0.001 to 0.1 |  |
| CC(C)CC(c1ccccc1)c1cc(N)nc2[nH]nnc12 (centres unmarked) [Example 4, 7-(3-methyl-1-phenylbutyl)-3H-[1,2,3]triazolo[4,5-b]pyridin-5-amine] |  | 0.101 to 0.999 |  |
| CCC(c1ccccc1)c1cc(N)nc2[nH]nnc12 (centres unmarked) [Example 5, 7-(1-phenylpropyl)-3H-[1,2,3]triazolo [4,5-b]pyridin-5-amine] |  | 0.101 to 0.999 |  |
| Nc1cc(C(CCC2CCCCC2)c2ccccc2)c2nn[nH]c2n1 (centres unmarked) [Example 6, 7-(3-cyclohexyl-1-phenylpropyl)-3H-[1,2,3]triazolo[4,5-b]pyridin-5-amine] |  | 0.101 to 0.999 |  |
| Nc1cc(C(CCNC2CCCCC2)c2ccccc2)c2nn[nH]c2n1 (centres unmarked) [Example 19, 7-[3-(cyclohexylamino)-1-phenylpropyl]-3H-[1,2,3]triazolo[4,5-b] pyridin-5-amine] |  | 0.101 to 0.999 |  |
| Nc1cc(C(Cc2ccccc2Cl)c2ccccc2)c2nn[nH]c2n1 (centres unmarked) [Example 31, 7-[2-(2-chlorophenyl)-1-phenylethyl]-3H-[1,2,3]triazolo [4,5-b]pyridin-5-amine] |  | 0.101 to 0.999 |  |
| Nc1cc(C(Cc2cccc(Cl)c2)c2ccccc2)c2nn[nH]c2n1 (centres unmarked) [Example 32, 7-[2-(3-chlorophenyl)-1-phenylethyl]-3H-[1,2,3]triazolo [4,5-b]pyridin-5-amine] |  | 0.101 to 0.999 |  |
| Nc1cc(C(Cc2ccc(Cl)cc2)c2ccccc2)c2nn[nH]c2n1 (centres unmarked) [Example 33, 7-[2-(4-chlorophenyl)-1-phenylethyl]-3H-[1,2,3]triazolo [4,5-b]pyridin-5-amine] |  | 0.101 to 0.999 |  |
| COc1cccc(C(Cc2ccccc2)c2cc(N)nc3[nH]nnc23)c1 (centres unmarked) [Example 34, 7-(1-(3-methoxyphenyl)-2-phenylethyl)-3H-[1,2,3]triazolo[4,5-b]pyridin-5-amine] |  |  | 0.101 to 0.999 |
| Nc1cc(C(Cc2ccccc2)c2cccc(Cl)c2)c2nn[nH]c2n1 (centres unmarked) [Example 35, 7-[1-(3-chlorophenyl)-2-phenylethyl]-3H-[1,2,3]triazolo [4,5-b]pyridin-5-amine] |  | 0.101 to 0.999 |  |
| Cc1cccc(C(Cc2ccccc2)c2cc(N)nc3[nH]nnc23)c1 (centres unmarked) [Example 36, 7-[1-(3-methylphenyl)-2-phenylethyl]-3H-[1,2,3]triazolo [4,5-b]pyridin-5-amine] |  | 0.101 to 0.999 |  |
| Nc1cc(C(CCNC2CCC(c3ccc(Cl)c(Cl)c3)c3ccccc32)c2ccccc2)c2nn[nH]c2n1 (centres unmarked) [Example 122, 7-(3-{[4-(3,4-dichlorophenyl)-1,2,3,4-tetrahydronaphthalen-1-yl]amino}-1-phenylpropyl)-3H-[1,2,3]triazolo[4,5-b]pyridin-5-amine] |  | 0.001 to 0.1 |  |
| CC1CC(NCCC(c2ccccc2)c2cc(N)nc3[nH]nnc23)CCN1c1ccccc1 (centres unmarked) [Example 131, N-(3-{5-amino-3H-[1,2,3]triazolo[4,5-b]pyridin-7-yl}-3-phenylpropyl)-2-methyl-1-phenylpiperidin-4-amine] | 1 to 100 |  |  |
| COC(=O)c1cccc(C(CCN[C@H]2CC[C@H](c3ccccc3)CC2)c2cc(N)nc3[nH]nnc23)c1 (stereo partly drawn) [Example 163, methyl 3-(1-{5-amino-3H-[1,2,3]triazolo [4,5-b]pyridin-7-yl}-3-{[(trans)-4-phenylcyclohexyl]amino}propyl) benzoate] | 1 to 100 |  |  |
| Nc1cc(C(CCO)c2ccccc2)c2nn[nH]c2n1 (centres unmarked) [Example 174, 3-{5-amino-3H-[1,2,3]triazolo [4,5-b]pyridin-7-yl}-3-phenylpropan-1-ol] |  | 0.101 to 0.999 |  |
| Nc1cc([C@H](CCNC23CCC(c4ccccc4)(CC2)C(O)C3)c2ccccc2)c2nn[nH]c2n1 (stereo partly drawn) [Example 181, 4-{[(3R)-3-{5-amino-3H-[1,2,3]triazolo [4,5-b]pyridin-7-yl}-3-phenylpropyl]amino}-1-phenylbicyclo[2.2.2] octan-2-ol] |  | 0.001 to 0.1 |  |
| NC(=O)CN(CC[C@H](c1ccccc1)c1cc(N)nc2[nH]nnc12)[C@H]1CC[C@H](c2ccccc2)CC1 [Example 189, 2-{[(3R)-3-{5-amino-3H-[1,2,3]triazolo [4,5-b]pyridin-7-yl}-3-phenylpropyl] [(trans)-4-phenylcyclohexyl]amino}acetamide] | 1 to 100 |  |  |
| Nc1cc(C(Cc2ccc(CO)cc2)c2ccccc2)c2nn[nH]c2n1 (centres unmarked) [Example 224, (4-(2-(5-amino-3H-[1,2,3]triazolo[4,5-b]pyridin-7-yl)-2-phenylethyl)phenyl)methanol] |  | 0.001 to 0.1 |  |
